Experimental data: PMC10160982 (Proceedings of the National Academy of Sciences of the …, 2023)

Molecular target: SARS-CoV-2 M^pro (Severe acute respiratory syndrome coronavirus 2, UniProt P0DTD1)
Experiment: FRET-based SARS-CoV-2 Mpro inhibition activity assay
Type: biochemical
Details: SARS-CoV-2 M^pro inhibition IC50, FRET-based protease assay

COc1cc(O)ccc1/C=C/C(=O)c1ccc(O)cc1 [Echinatin]
IC50: 22.5 µM
